The text below walks through data of patent publication US8501752B2, “Methods for treating cancer and other pathological proliferating disorders by inhibiting mitosis using pyrrolo[2,3-d]pyrimidines” (Duquesne University of the Holy Ghost, priority 2005, dated 2013).

Like-named read-outs stand apart in the source and are kept apart here.

Data set [1] relates to A498. Kind of data set: NCI IVCLSP growth inhibition (SRB), A498. Format: cell-based, human. The settings on record: renal cancer A498 cell. Here is the method: (§1) FIG. 1 presents nine compounds that were tested using the National Cancer Institute (NCI) 60 human tumor cell lines. The cells lines, which represent leukemia, melanoma, and cancers of the lung, colon, brain, ovary, breast, prostate, and kidney, are listed in Table 1.
Compounds 1-9 were tested according to the NCI Developmental Therapeutics Program (DTP) In Vitro Cell Line Screening Project (IVCLSP). […] Methodology for testing under the IVCLSP is as follows: The human tumor cell lines of the cancer screening panel are grown in RPMI 1640 medium containing 5% fetal bovine serum and 2 mM L-glutamine. […]
Following drug addition, the plates are incubated for an additional 48 h at 37° C., 5% CO2, 95% air, and 100% relative humidity. […] Bound stain is subsequently solubilized with 10 mM trizma base, and the absorbance is read on an automated plate reader at a wavelength of 515 nm. […] Using the seven absorbance measurements [time zero, (Tz), control growth, (C), and test growth in the presence of drug at the five concentration levels (Ti)], the percentage growth is calculated at each of the drug concentrations levels. Percentage growth inhibition is calculated as: [(Ti−Tz)/(C−Tz)]×100 for concentrations for which Ti>/=Tz [(Ti−Tz)/Tz]×100 for concentrations for which Ti<Tz.
Three dose response parameters are calculated for each experimental agent. […]

Data set [2] relates to NCI 60 human tumor cell lines. Kind of data set: NCI IVCLSP growth inhibition, whole panel (text summaries). The settings on record: NCI 60 tumor panel. Format: cell-based. Here is the method:
as §1
Compounds 1-9 were tested according to the NCI Developmental Therapeutics Program (DTP) In Vitro Cell Line Screening Project (IVCLSP). […] Methodology for testing under the IVCLSP is as follows: The human tumor cell lines of the cancer screening panel are grown in RPMI 1640 medium containing 5% fetal bovine serum and 2 mM L-glutamine. For a typical screening experiment, cells are inoculated into 96 well microtiter plates in 100 μL at plating densities ranging from 5,000 to 40,000 cells/well depending on the doubling time of individual cell lines. After cell inoculation, the microtiter plates are incubated at 37° C., 5% CO2, 95% air and 100% relative humidity for 24 h prior to addition of experimental drugs.
After 24 h, two plates of each cell line are fixed in situ with TCA, to represent a measurement of the cell population for each cell line at the time of drug addition (Tz). Experimental drugs are solubilized in dimethyl sulfoxide at 400-fold the desired final maximum test concentration and stored frozen prior to use. At the time of drug addition, an aliquot of frozen concentrate is thawed and diluted to twice the desired final maximum test concentration with complete medium containing 50 μg/ml gentamicin. Additional four, 10-fold or ½ log serial dilutions are made to provide a total of five drug concentrations plus control. Aliquots of 100 μl of these different drug dilutions are added to the appropriate microtiter wells already containing 100 μl of medium, resulting in the required final drug concentrations.
Following drug addition, the plates are incubated for an additional 48 h at 37° C., 5% CO2, 95% air, and 100% relative humidity. For adherent cells, the assay is terminated by the addition of cold TCA. Cells are fixed in situ by the gentle addition of 50 μl of cold 50% (w/v) TCA (final concentration, 10% TCA) and incubated for 60 minutes at 4° C. The supernatant is discarded, and the plates are washed five times with tap water and air dried. Sulforhodamine B (SRB) solution (100 μl) at 0.4% (w/v) in 1% acetic acid is added to each well, and plates are incubated for 10 minutes at room temperature. After staining, unbound dye is removed by washing five times with 1% acetic acid and the plates are air dried. Bound stain is subsequently solubilized with 10 mM trizma base, and the absorbance is read on an automated plate reader at a wavelength of 515 nm. For suspension cells, the methodology is the same except that the assay is terminated by fixing settled cells at the bottom of the wells by gently adding 50 μl of 80% TCA (final concentration, 16% TCA). Using the seven absorbance measurements [time zero, (Tz), control growth, (C), and test growth in the presence of drug at the five concentration levels (Ti)], the percentage growth is calculated at each of the drug concentrations levels. Percentage growth inhibition is calculated as: [(Ti−Tz)/(C−Tz)]×100 for concentrations for which Ti>/=Tz [(Ti−Tz)/Tz]×100 for concentrations for which Ti<Tz.
Three dose response parameters are calculated for each experimental agent. […] The drug concentration resulting in total growth inhibition (TGI) is calculated from Ti=Tz. […]

The test system of data set [3] is T24 human bladder carcinoma cells. The data set can be described thus: Cytotoxicity, T24 cells. In kind it is cell-based. The settings on record: mean ± SEM for 3 experiments.
In data set [4] the target is T1, P-glycoprotein (Homo sapiens, UniProt P08183).
T1 construct: NCI/ADR cells that overexpress P-glycoprotein; endogenous in cells; host or cells: NCI/ADR cells
T1 sequence (P08183 whole entry): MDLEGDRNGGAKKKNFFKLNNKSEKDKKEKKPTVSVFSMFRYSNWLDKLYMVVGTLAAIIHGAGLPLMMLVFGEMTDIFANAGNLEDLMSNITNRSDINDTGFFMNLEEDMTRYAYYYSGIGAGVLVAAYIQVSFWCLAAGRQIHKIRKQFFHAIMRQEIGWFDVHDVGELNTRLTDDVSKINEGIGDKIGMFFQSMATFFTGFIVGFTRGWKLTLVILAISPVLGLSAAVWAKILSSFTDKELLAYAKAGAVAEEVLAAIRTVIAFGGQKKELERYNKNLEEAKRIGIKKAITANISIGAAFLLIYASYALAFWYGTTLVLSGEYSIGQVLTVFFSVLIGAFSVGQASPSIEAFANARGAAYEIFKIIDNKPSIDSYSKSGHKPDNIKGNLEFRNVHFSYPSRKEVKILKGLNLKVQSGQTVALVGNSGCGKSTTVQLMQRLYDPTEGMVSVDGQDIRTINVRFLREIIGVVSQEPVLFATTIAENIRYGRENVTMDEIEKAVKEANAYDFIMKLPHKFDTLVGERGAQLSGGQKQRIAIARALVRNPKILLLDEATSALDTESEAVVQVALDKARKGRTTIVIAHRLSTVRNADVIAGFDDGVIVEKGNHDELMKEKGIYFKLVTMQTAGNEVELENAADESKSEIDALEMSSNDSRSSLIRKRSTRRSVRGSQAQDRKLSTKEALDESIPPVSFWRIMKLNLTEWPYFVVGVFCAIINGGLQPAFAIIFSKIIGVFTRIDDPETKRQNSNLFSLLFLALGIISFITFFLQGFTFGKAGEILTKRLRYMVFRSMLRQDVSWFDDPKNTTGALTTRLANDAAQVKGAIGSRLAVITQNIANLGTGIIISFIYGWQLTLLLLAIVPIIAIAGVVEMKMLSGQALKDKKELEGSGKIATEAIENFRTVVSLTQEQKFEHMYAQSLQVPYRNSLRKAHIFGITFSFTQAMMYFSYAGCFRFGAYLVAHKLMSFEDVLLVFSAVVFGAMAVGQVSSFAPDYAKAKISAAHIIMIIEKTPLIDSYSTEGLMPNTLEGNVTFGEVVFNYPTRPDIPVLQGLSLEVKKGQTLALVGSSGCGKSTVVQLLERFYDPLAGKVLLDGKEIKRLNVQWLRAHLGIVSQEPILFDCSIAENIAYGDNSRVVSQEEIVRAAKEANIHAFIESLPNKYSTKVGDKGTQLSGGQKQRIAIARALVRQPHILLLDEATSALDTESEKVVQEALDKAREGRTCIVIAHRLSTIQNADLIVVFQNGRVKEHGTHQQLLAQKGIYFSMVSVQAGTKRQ
Kind of data set: P-glycoprotein antagonism: sensitivity of NCI/ADR cells to vinblastine. Format: cell-based. The settings on record: absence or presence of 50 nM vinblastine. An excerpt:
To determine if this is due to inhibition of drug transport activity by these proteins, the effects of these compounds on P-glycoprotein were further characterized. The effects of the compounds on the sensitivity of NCI/ADR cells to vinblastine and of MCF-7/VP cells to vincristine were examined to evaluate antagonism of P-glycoprotein and MRP1, respectively. FIGS. 4a-b present graphs of antagonism score versus concentration for P-glycoprotein and MRP1, respectively.
The Pgp antagonism score is calculated as the percentage survival of cells in the absence of vinblastine/percentage survival in the presence of vinblastine. […] The MRP1 antagonism score is calculated as the percentage survival of cells in the absence of vincristine/percentage survival in the presence of vincristine. […] Concentrations of Compounds 1-5 above their IC50 toward MCF-7 cells are not indicated. Data for one of three similar experiments is shown.

Data set [5] deals with MCF-7 cells. Kind of data set: Cytotoxicity, drug-sensitive MCF-7 cells.
Description: (§3) These cell lines are resistant to anticancer drugs due to overexpression of the transport proteins P-glycoprotein or MRP1.
The subject of data set [6] is MCF-7/VP cells. The data set can be described thus: Cytotoxicity, MCF-7/VP cells that overexpress MRP1.
Description: as §3
In data set [7] the test system is NCI/ADR cells. The data set can be described thus: Cytotoxicity, NCI/ADR cells that overexpress P-glycoprotein.
Description: as §3
Data set [8] deals with A-10 rat smooth muscle cells. The data set can be described thus: Microtubule structure, indirect immunofluorescence, A-10 cells. The settings on record: 24 hours; 625 nM TAXOL, 167 nM vinblastine, 900 nM Compound 1. In kind it is cell-based. Here is the method:
Because of the morphological effects of Compound 1 on cultured cells and the NCI COMPARE analysis results described above, the effects of vinblastine, TAXOL (paclitaxel), and Compound 1 on microtubule structure were examined. For these studies, A-10 rat smooth muscle cells were used since they grow as flat monolayers that are amenable to imaging. The A-10 cells were treated for 24 hours with EtOH (control), 625 nM TAXOL (paclitaxel), 167 nM vinblastine, and 900 nM of Compound 1. Microtubules were then visualized by indirect immunofluoresence staining with B-tubulin antibodies. FIGS. 2a-d present representative fields for the control, TAXOL (paclitaxel), vinblastine, and Compound 1 (“149”), respectively. None of these compounds affected the morphology of stress fibers composed of microfilaments.

Data set [9] deals with HL-60 human promyelocytic leukemia cells. The data set can be described thus: Flow cytometric cell cycle phase distribution. The settings on record: 24 hours treatment. Format: cell-based. Here is the method:
Flow cytometric analyses were used to assess the effects of Compound 1 and various antimicrotubule drugs on the cell cycle phase distributions of HL-60 human promyelocytic leukemia cells. The percentage of cells in the G2/M phases were increased approximately 2-fold by treatment of the cells for 24 hours with either TAXOL (paclitaxel), vinblastine, colchicine, or Compound 1.

In data set [10] the test system is p53. Kind of data set: Western blot, p53 expression in MCF-7 cells. In kind it is cell-based, human. The settings on record: 24 hours, various concentrations. Here is the method:
(§2) To further characterize the cell cycle effects of Compound 1 on human tumor cells, MCF-7 cells were treated for 24 hours with various concentrations of Compound 1, vinblastine, or TAXOL (paclitaxel). Cells were then harvested, lysed, and analyzed for levels of expression of p53 and WAF1 by Western Blot analyses. […] Compound 1 is identified as “149” in these figures. […] None of these treatments affected the expression of bcl-2 or P-tubulin in the MCF-7 cells.

The subject of data set [11] is WAF1. The data set can be described thus: Western blot, WAF1 expression in MCF-7 cells. Format: cell-based, human. The settings on record: 24 hours, various concentrations. Here is the method:
as §2

Take `COc1cccc(CCc2cn(Cc3ccccc3)c3nc(N)nc(C)c23)c1` [Compound 3]: in data set [1], the “GI50 level (in words)” value is recorded as “two digit nanomolar level”. Moreover, the “GI50 values, level across the tumor cell lines (in words)” value in data set [2] was “micromolar range for 8 of the 56 tumor cell lines”. Besides, the IC50 in [3] is 25 ± 2.9 µM; in data set [5] (read-out: Cytotoxicity IC50, MCF-7, mean ± SEM for 3 experiments), 8 ± 3.5 µM; in [6] (read-out: Cytotoxicity IC50, MCF-7/VP, mean ± SEM for 3 experiments), 22 ± 4.2 µM; in data set [7] (read-out: Cytotoxicity IC50, NCI/ADR, mean ± SEM for 3 experiments), 5.7 ± 0.7 µM. Moreover, the “effect on P-glycoprotein-mediated resistance (in words)” value in data set [4] is “dose-dependent sensitization”. In addition, the “change of cytotoxic potency by substitution (in words)” value in [7] (NCI/ADR, relative to unsubstituted Compound 5) is “enhanced the potency”.
In the case of `CC[C@]1(O)C[C@@H]2CN(CCc3c([nH]c4ccccc34)[C@@](C(=O)OC)(c3cc4c(cc3OC)N(C)[C@H]3[C@@](O)(C(=O)OC)[C@H](OC(C)=O)[C@]5(CC)C=CCN6CC[C@]43[C@@H]65)C2)C1` [Vinblastine, vinblastine], the “effect on microtubule structure (in words)” value in [8] is “caused marked depletion of cellular microtubules”. Also, in data set [9] (HL-60), the “increase of the percentage of cells in the G2/M phases” value was “approximately 2 fold”. Besides, in data set [9] (percentage of HL-60 cells), the “cell cycle distribution, G2/M” value turned out to be 10.1 ± 0.3; the “cell cycle distribution, G9/G1” value worked out at 83.3 ± 1.3; the “cell cycle distribution, S” value was determined as 6.6 ± 1.6. In addition, in data set [10], the “level of expression of p53 (in words)” value is “marked increases”. In addition, in data set [11], the “level of expression of WAF1 (in words)” value was “marked increases”. In addition, in [5] (Homo sapiens, MCF7, read-out: drug sensitivity (IC50), MCF-7), the IC50 amounted to 0.0028 ± 0.0005 µM. In addition, the IC50 in [6] (Homo sapiens, MCF7-VP, read-out: drug sensitivity (IC50), MCF-7/VP) turned out to be 0.003 ± 0.0006 µM. Moreover, the “Resistance (MCF-7/VP relative to MCF-7)” value in data set [6] (MRP1) amounted to 1.1. Also, the IC50 in data set [7] (Homo sapiens, NCI/ADR-RES, read-out: drug sensitivity (IC50), NCI/ADR) was above 0.375 µM. In data set [7] (P-glycoprotein), the “Resistance (NCI/ADR relative to MCF-7)” value is on record as above 134.
